In patent US11053225B2, “Pyrimidine derivative compound, optical isomer thereof, or pharmaceutically acceptable salt thereof, and composition for preventing or treating Tyro 3 related disease comprising same as active ingredient” (KOREA RESEARCH INSTITUTE OF CHEMICAL TECHNOLOGY, priority 2017, dated 2021):

Tests used:
Tyro 3 = Tyro 3 (Homo sapiens (Human), UniProt Q06418); test: Tyro 3 kinase inhibition assay (Cisbio method, Eu-labeled antibody to phosphorylated peptide); settings: read-out: IC50 (μM) Tyro 3; 1 hour reaction with substrate peptide and ATP
Protocol: (§1) For evaluation of inhibitory activities of the compounds according to the present invention on Tyro 3, Axl, and Mer, the following test was carried out.
(§2) The specific test method followed the method provided by Cisbio. The compounds of the examples were prepared at various concentrations, followed by addition of Tyro 3, Axl, or Mer and substrate peptides, and then ATP was added to initiate a reaction. After 1 hour, the reaction was stopped by addition of a solution containing EDTA. Thereafter, the amount of phosphorylated peptides was measured. Here, the phosphorylated peptides were treated with an europium (Eu)-labeled antibody recognizing phosphorylated peptides, and then after 1 hour, excited by irradiation of the light of a wavelength of 320 or 340 nm using an Envision Reader.

Axl = Axl (Homo sapiens (Human), UniProt P30530); test: Axl kinase inhibition assay (Cisbio method, Eu-labeled antibody to phosphorylated peptide); settings: read-out: IC50 (μM) Axl; 1 hour reaction with substrate peptide and ATP
Protocol: as §1, §2

Mer = Mer (Homo sapiens (Human), UniProt Q12866); test: Mer kinase inhibition assay (Cisbio method, Eu-labeled antibody to phosphorylated peptide); settings: read-out: IC50 (μM) Mer; 1 hour reaction with substrate peptide and ATP
Mer, sequence (Q12866 21-999): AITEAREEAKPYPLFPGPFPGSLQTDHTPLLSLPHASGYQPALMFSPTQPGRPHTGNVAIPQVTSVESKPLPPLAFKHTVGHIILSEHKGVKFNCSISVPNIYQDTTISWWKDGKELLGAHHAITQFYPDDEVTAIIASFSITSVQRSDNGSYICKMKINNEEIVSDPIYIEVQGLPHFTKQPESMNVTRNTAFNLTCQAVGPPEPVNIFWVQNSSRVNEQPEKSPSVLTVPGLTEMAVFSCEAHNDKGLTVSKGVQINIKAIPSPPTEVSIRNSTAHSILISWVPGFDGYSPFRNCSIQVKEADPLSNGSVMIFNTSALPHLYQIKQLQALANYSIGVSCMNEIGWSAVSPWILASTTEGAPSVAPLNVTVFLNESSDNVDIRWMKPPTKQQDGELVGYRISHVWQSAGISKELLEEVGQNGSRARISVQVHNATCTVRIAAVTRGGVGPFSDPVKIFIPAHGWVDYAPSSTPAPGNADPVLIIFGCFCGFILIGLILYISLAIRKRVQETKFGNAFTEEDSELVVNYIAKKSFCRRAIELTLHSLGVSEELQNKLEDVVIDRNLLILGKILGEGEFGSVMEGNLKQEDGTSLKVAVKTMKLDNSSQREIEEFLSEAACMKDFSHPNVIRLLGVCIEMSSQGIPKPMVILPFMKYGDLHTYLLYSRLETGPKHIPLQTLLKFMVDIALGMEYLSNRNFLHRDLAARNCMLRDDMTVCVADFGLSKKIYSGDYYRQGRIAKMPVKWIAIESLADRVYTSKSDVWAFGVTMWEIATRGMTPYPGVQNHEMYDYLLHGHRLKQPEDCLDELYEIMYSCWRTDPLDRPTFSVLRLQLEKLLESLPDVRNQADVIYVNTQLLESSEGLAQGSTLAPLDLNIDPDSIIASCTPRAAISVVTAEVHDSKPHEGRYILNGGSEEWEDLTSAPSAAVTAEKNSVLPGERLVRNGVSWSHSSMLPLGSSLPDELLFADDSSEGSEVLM
Protocol: as §1, §2

Tyro 3, sequence (Q06418 41-890): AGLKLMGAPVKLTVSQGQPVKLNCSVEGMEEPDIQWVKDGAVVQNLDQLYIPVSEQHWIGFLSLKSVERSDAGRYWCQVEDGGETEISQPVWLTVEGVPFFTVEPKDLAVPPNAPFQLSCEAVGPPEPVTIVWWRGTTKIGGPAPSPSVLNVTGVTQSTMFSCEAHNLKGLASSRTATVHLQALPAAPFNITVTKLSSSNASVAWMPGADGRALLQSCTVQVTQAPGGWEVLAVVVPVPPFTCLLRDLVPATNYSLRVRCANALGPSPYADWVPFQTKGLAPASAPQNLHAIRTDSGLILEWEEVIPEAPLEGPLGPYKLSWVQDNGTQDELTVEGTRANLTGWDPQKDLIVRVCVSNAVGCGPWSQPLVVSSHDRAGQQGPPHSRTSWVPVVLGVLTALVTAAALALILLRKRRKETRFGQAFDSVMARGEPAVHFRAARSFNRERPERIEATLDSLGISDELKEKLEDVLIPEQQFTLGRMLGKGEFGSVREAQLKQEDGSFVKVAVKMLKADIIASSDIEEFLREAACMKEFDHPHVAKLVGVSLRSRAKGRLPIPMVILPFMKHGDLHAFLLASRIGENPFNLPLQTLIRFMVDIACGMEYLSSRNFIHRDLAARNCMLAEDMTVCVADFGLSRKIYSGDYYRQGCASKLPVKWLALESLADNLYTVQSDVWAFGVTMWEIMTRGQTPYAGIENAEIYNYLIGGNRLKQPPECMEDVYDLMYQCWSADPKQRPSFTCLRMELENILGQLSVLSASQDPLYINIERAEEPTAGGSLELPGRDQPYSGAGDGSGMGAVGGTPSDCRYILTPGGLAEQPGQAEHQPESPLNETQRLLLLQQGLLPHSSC
Axl, sequence (P30530 26-894): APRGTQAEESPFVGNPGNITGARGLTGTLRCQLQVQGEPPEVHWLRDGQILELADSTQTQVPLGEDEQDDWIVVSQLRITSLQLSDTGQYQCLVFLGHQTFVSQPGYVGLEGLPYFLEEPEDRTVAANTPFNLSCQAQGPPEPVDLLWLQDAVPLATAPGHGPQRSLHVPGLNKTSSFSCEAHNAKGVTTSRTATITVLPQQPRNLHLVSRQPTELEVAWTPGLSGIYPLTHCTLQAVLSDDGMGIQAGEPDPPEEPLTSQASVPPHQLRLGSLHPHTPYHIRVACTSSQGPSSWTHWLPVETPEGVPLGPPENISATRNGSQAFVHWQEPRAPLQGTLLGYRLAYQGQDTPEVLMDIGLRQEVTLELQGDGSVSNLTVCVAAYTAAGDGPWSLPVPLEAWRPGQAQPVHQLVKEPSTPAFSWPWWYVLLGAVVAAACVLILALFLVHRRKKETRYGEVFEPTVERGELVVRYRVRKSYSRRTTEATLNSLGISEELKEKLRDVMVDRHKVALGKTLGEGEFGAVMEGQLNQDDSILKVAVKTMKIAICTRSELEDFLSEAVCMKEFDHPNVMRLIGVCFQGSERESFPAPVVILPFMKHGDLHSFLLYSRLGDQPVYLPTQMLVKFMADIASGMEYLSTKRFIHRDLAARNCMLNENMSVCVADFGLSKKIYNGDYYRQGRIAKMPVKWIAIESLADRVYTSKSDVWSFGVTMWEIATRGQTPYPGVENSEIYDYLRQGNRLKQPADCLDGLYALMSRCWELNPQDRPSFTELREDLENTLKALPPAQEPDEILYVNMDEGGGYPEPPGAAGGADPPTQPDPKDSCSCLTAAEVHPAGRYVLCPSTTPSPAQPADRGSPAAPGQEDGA

Cn1cc(-c2cnc(Nc3cc(C(F)(F)F)cc(C(F)(F)F)c3)nc2Nc2ccc3c(c2)CN(C(=O)C(F)(F)F)CC3)cn1 [Compound 139, 1-(7-(2-(3,5-bis(trifluoromethyl)phenylamino)-5-(1-methyl-1H-pyrazol-4-yl)pyrimidin-4-ylamino)-3,4-dihydroisoquinolin-2(1H)-yl)-2,2,2-trifluoroethan-1-one]
IC50 (Tyro 3): 6.2e-06 µM | IC50 (Axl): > 10 µM

Cn1cc(-c2cnc(Cl)nc2NC2CCCCC2)cn1 [Compound 4, 2-chloro-N4-cyclohexyl-5-(1-methyl-1H-pyrazol-4-yl)pyrimidine-4-amine]
IC50 (Mer): > 10 µM | IC50 (Tyro 3): > 10 µM

Cn1cc(-c2cnc(Nc3cc(Cl)cc(Cl)c3)nc2NC2CCCCC2)cn1 [Compound 5, N4-cyclohexyl-N2-(3,5-dichlorophenyl)-5-(1-methyl-1H-pyrazol-4-yl)pyrimidine-2,4-diamine]
IC50 (Mer): > 2 µM | IC50 (Axl): > 10 µM

Cc1ccc(Nc2ncc(Br)c(NC3CCCCC3)n2)cc1 [Compound 1, 5-bromo-N4-cyclohexyl-N2-(p-tolyl)pyrimidine-2,4-diamine]
IC50 (Mer): > 10 µM | IC50 (Tyro 3): > 10 µM | IC50 (Axl): > 10 µM
